Consider 40 compounds from patent US20080045507A1, “SUBSTITUTED BENZAMIDE MODULATORS OF THE HISTAMINE H3 RECEPTOR” (priority 2006, published 2008).

As a reminder, the Ki is a measure of affinity in units of concentration, obtained from inhibition or displacement. Higher therefore signals a looser hold on the target.

T1 sequence (Q9Y5N1 whole entry): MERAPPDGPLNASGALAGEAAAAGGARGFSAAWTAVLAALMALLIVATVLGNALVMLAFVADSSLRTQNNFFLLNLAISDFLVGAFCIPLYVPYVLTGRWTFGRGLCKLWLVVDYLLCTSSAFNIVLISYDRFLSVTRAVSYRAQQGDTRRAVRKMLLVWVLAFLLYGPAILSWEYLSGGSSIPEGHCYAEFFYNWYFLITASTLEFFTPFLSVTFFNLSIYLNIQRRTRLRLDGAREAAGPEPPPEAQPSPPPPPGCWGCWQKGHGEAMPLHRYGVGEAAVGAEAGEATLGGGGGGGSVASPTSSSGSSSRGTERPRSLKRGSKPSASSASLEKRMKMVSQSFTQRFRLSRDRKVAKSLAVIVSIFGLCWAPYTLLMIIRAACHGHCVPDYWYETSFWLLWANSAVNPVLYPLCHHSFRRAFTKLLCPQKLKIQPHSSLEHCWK

One experiment has as its target T1, human H3 receptor (Homo sapiens, UniProt Q9Y5N1).
T1 construct: expressed in transfected cells
In words: H3 receptor binding, cloned human H3 receptor stably expressed in SK-N-MC cells. The conditions noted are these: average of results. Here is the method:
(§1) Binding of compounds to the cloned human and rat H3 receptors, stably expressed in SK-N-MC cells, was performed as described by Barbier, A. J. et al. (Br. J. Pharmacol. 2004, 143(5), 649-661). Data for compounds tested in these assays are presented in Table 1 (human) and Table 2 (rat), as an average of the results obtained.
Consider `CC(C)N1CCN(C(=O)c2ccc(C(O)C3CCCCC3)cc2)CC1` (centres unmarked) [Example 1, [4-(Cyclohexyl-hydroxy-methyl)-phenyl]-(4-isopropyl-piperazin-1-yl)-methanone], for which the Ki was 7 nM.
`CCC(O)c1ccc(C(=O)N2CCN(C(C)C)CC2)cc1` (centres unmarked) [Example 2, [4-(1-Hydroxy-propyl)-phenyl]-(4-isopropyl-piperazin-1-yl)-methanone]: the affinity corresponds to a Ki of 32 nM.
On the same count and under the same terms, next, `CC(C)N1CCN(C(=O)c2ccc(C(O)c3ccccc3)cc2)CC1` (centres unmarked) [Example 3, [4-(Hydroxy-phenyl-methyl)-phenyl]-(4-isopropyl-piperazin-1-yl)-methanone]: 14 nM.
Still for that read-out and setting: as for `CC(O)c1ccc(C(=O)N2CCN(C(C)C)CC2)cc1` (centres unmarked) [Example 4, [4-(1-Hydroxy-ethyl)-phenyl]-(4-isopropyl-piperazin-1-yl)-methanone], the figure is 58 nM; as for `CC(C)C(O)c1ccc(C(=O)N2CCN(C(C)C)CC2)cc1` (centres unmarked) [Example 5, [4-(1-Hydroxy-2-methyl-propyl)-phenyl]-(4-isopropyl-piperazin-1-yl)-methanone], 6 nM; as for `CC(C)N1CCN(C(=O)c2ccc(CO)cc2)CC1` [Example 6, (4-Hydroxymethyl-phenyl)-(4-isopropyl-piperazin-1-yl)-methanone], 164 nM.
As to `CC(C)N1CCCN(C(=O)c2ccc(CO)cc2)CC1` [Example 8, (4-Hydroxymethyl-phenyl)-(4-isopropyl-[1,4]diazepan-1-yl)-methanone], the Ki is 31 nM.
Take `CC(C)N1CCCN(C(=O)c2ccc(C(=O)C3CCCCC3)cc2)CC1` [Example 9, (4-Cyclohexanecarbonyl-phenyl)-(4-isopropyl-[1,4]diazepan-1-yl)-methanone]: the affinity, expressed as Ki, was 3 nM.
Compound `CCC(O)c1ccc(C(=O)N2CCCN(C(C)C)CC2)cc1` (centres unmarked) [Example 10, [4-(1-Hydroxy-propyl)-phenyl]-(4-isopropyl-[1,4]diazepan-1-yl)-methanone] had a Ki of 9 nM.
In turn, `CC(C)N1CCCN(C(=O)c2ccc(C(O)c3ccccc3)cc2)CC1` (centres unmarked) [Example 11, [4-(Hydroxy-phenyl-methyl)-phenyl]-(4-isopropyl-[1,4]diazepan-1-yl)-methanone] showed a Ki of 2 nM.
In turn, `CC(O)c1ccc(C(=O)N2CCCN(C(C)C)CC2)cc1` (centres unmarked) [Example 12, [4-(1-Hydroxy-ethyl)-phenyl]-(4-isopropyl-[1,4]diazepan-1-yl)-methanone] displayed a Ki of 17 nM.
Consider `CC(C)C(O)c1ccc(C(=O)N2CCCN(C(C)C)CC2)cc1` (centres unmarked) [Example 13, [4-(1-Hydroxy-2-methyl-propyl)-phenyl]-(4-isopropyl-[1,4]diazepan-1-yl)-methanone], for which the Ki is 6 nM.
In turn, `O=C(c1ccc(C(O)c2ccccc2)cc1)N1CCN(C2CCC2)CC1` (centres unmarked) [Example 14, (4-cyclobutyl-piperazin-1-yl)-[4-(hydroxy-phenyl-methyl)-phenyl]-methanone] gave a Ki of 4 nM. This Ki is about 1.5-fold lower than that of the compound before.
`CCC(O)c1ccc(C(=O)N2CCN(C3CCC3)CC2)cc1` (centres unmarked) [Example 15, (4-Cyclobutyl-piperazin-1-yl)-[4-(1-hydroxy-propyl)-phenyl]-methanone] had a Ki of 12 nM.
As to `CC(C)C(O)c1ccc(C(=O)N2CCN(C3CCC3)CC2)cc1` (centres unmarked) [Example 16, (4-Cyclobutyl-piperazin-1-yl)-[4-(1-hydroxy-2-methyl-propyl)-phenyl]-methanone], the Ki amounted to 15 nM.
`O=C(c1ccc(C(O)C2CCCCC2)cc1)N1CCN(C2CCC2)CC1` (centres unmarked) [Example 17, (4-Cyclobutyl-piperazin-1-yl)-[4-(cyclohexyl-hydroxy-methyl)-phenyl]-methanone] returned a Ki of 4 nM.
For `O=C(c1ccc(CO)cc1)N1CCN(C2CCC2)CC1` [Example 18, (4-Cyclobutyl-piperazin-1-yl)-(4-hydroxymethyl-phenyl)-methanone], the affinity corresponds to a Ki of 43 nM.
In turn, `CCC(O)c1ccc(C(=O)N2CCCN(C3CCC3)CC2)cc1` (centres unmarked) [Example 19, (4-Cyclobutyl-[1,4]diazepan-1-yl)-[4-(1-hydroxy-propyl)-phenyl]-methanone] registered a Ki of 1 nM.
With `O=C(c1ccc(C(O)C2CCCCC2)cc1)N1CCCN(C2CCC2)CC1` (centres unmarked) [Example 20, (4-Cyclobutyl-[1,4]diazepan-1-yl)-[4-(cyclohexyl-hydroxy-methyl)-phenyl]-methanone], the affinity corresponds to a Ki of 1 nM.
Same read-out and setting: as for `O=C(c1ccc(C(O)c2ccccc2)cc1)N1CCCN(C2CCC2)CC1` (centres unmarked) [Example 21, (4-Cyclobutyl-[1,4]diazepan-1-yl)-[4-(hydroxy-phenyl-methyl)-phenyl]-methanone], the figure is 1 nM.
`CC(C)C(O)c1ccc(C(=O)N2CCCN(C3CCC3)CC2)cc1` (centres unmarked) [Example 22, (4-Cyclobutyl-[1,4]diazepan-1-yl)-[4-(1-hydroxy-2-methyl-propyl)-phenyl]-methanone] displayed a Ki of 1 nM.
Consider `O=C(c1ccc(CO)cc1)N1CCCN(C2CCC2)CC1` [Example 23, (4-Cyclobutyl-[1,4]diazepan-1-yl)-(4-hydroxymethyl-phenyl)-methanone], for which affinity was put at a Ki of 2 nM. Compared with the last compound, the Ki is about 2-fold higher.
As for `O=C(c1ccc(C(O)C2CCCCC2)cc1)N1CCN(C2CC2)CC1` (centres unmarked) [Example 24, [4-(Cyclohexyl-hydroxy-methyl)-phenyl]-(4-cyclopropyl-piperazin-1-yl)-methanone], the affinity, expressed as Ki, was 19 nM.
As for `O=C(c1ccc(C(O)c2ccccc2)cc1)N1CCN(C2CC2)CC1` (centres unmarked) [Example 25, (4-Cyclopropyl-piperazin-1-yl)-[4-(hydroxy-phenyl-methyl)-phenyl]-methanone], affinity was put at a Ki of 59 nM.
`CC(C)C(O)c1ccc(C(=O)N2CCN(C3CC3)CC2)cc1` (centres unmarked) [Example 26, (4-Cyclopropyl-piperazin-1-yl)-[4-(1-hydroxy-2-methyl-propyl)-phenyl]-methanone] returned a Ki of 84 nM.
The same measure, in the same setting: next, `O=C(c1ccc(CO)cc1)N1CCCN(C2CC2)CC1` [Example 28, (4-Cyclopropyl-[1,4]diazepan-1-yl)-(4-hydroxymethyl-phenyl)-methanone]: 20 nM; `CCC(O)c1ccc(C(=O)N2CCCN(C3CC3)CC2)cc1` (centres unmarked) [Example 31, (4-Cyclopropyl-[1,4]diazepan-1-yl)-[4-(1-hydroxy-propyl)-phenyl]-methanone]: 4 nM.
The compound `CCc1ccc(C(=O)N2CCN(C3CCC3)CC2)cc1` [Example 34, (4-Cyclobutyl-piperazin-1-yl)-(4-ethyl-phenyl)-methanone] displayed a Ki of 28 nM.
In turn, `CC(C)c1ccc(C(=O)N2CCN(C3CCC3)CC2)cc1` [Example 35, (4-Cyclobutyl-piperazin-1-yl)-(4-isopropyl-phenyl)-methanone] displayed a Ki of 11 nM.
The compound `O=C(c1ccc(C2CCCCC2)cc1)N1CCN(C2CCC2)CC1` [Example 36, (4-Cyclobutyl-piperazin-1-yl)-(4-cyclohexyl-phenyl)-methanone] yielded a Ki of 9 nM.
Turning to `O=C(c1ccc(Cc2ccccc2)cc1)N1CCN(C2CCC2)CC1` [Example 37, (4-Benzyl-phenyl)-(4-cyclobutyl-piperazin-1-yl)-methanone], the Ki amounted to 7 nM. This Ki and that of the compound before are within 1.5-fold of each other.
For `CCCc1ccc(C(=O)N2CCN(C3CCC3)CC2)cc1` [Example 38, (4-Cyclobutyl-piperazin-1-yl)-(4-propyl-phenyl)-methanone], the inhibition constant (Ki) came to 31 nM. Against the preceding compound, the Ki is about 4.4-fold higher.
For the compound `CCCCc1ccc(C(=O)N2CCN(C3CCC3)CC2)cc1` [Example 39, (4-Butyl-phenyl)-(4-cyclobutyl-piperazin-1-yl)-methanone], the Ki stood at 24 nM.
In the case of `CCCCCc1ccc(C(=O)N2CCN(C3CCC3)CC2)cc1` [Example 40, (4-Cyclobutyl-piperazin-1-yl)-(4-pentyl-phenyl)-methanone], the Ki was 17 nM.
Take `CC(C)(O)c1ccc(C(=O)N2CCN(C3CCC3)CC2)cc1` [Example 41, (4-Cyclobutyl-piperazin-1-yl)-[4-(1-hydroxy-1-methyl-ethyl)-phenyl]-methanone]: the Ki was 32 nM.
`O=C(c1ccc(C2(O)CCCCC2)cc1)N1CCN(C2CCC2)CC1` [Example 42, (4-Cyclobutyl-piperazin-1-yl)-[4-(1-hydroxy-cyclohexyl)-phenyl]-methanone] gave a Ki of 7 nM. Compared with the last compound, the Ki is about 4.6-fold lower.
As for `CCC(O)c1ccc(C(=O)N2CCN(C3CC3)CC2)cc1` (centres unmarked) [Example 48, (4-Cyclopropyl-piperazin-1-yl)-[4-(1-hydroxy-propyl)-phenyl]-methanone], the affinity corresponds to a Ki of 221 nM.
Same read-out and setting: as for `O=C(c1ccc(CO)cc1)N1CCN(C2CC2)CC1` [Example 49, (4-Cyclopropyl-piperazin-1-yl)-(4-hydroxymethyl-phenyl)-methanone], the figure is 586 nM.
Take `CCCCN1CCN(C(=O)c2ccc(CO)cc2)CC1` [Example 50, (4-Butyl-piperazin-1-yl)-(4-hydroxymethyl-phenyl)-methanone]: the affinity, expressed as Ki, was 55 nM.
In the case of `CCC(C)N1CCN(C(=O)c2ccc(CO)cc2)CC1` (centres unmarked) [Example 51, (4-sec-Butyl-piperazin-1-yl)-(4-hydroxymethyl-phenyl)-methanone], affinity was put at a Ki of 530 nM. Compared with the last compound, the Ki is about 9.6-fold higher.

The target in a further experiment is T2, rat H3 receptor (Rattus norvegicus, UniProt Q9QYN8).
T2 construct: expressed in transfected cells
T2 sequence (Q9QYN8 whole entry): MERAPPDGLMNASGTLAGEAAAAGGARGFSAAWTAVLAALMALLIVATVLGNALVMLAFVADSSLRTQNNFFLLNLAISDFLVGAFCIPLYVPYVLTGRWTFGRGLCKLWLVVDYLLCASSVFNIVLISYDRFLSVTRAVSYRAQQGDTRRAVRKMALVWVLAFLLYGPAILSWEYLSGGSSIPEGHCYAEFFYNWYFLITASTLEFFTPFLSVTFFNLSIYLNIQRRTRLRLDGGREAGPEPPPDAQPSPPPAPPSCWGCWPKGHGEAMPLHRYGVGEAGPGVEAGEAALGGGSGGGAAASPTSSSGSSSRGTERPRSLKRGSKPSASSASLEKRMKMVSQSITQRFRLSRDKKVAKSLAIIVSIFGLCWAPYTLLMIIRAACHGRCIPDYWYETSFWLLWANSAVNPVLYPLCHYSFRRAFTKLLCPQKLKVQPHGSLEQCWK
In words: H3 receptor binding, cloned rat H3 receptor stably expressed in SK-N-MC cells. The conditions noted are these: average of results. The protocol:
as §1
Regarding `CCC(O)c1ccc(C(=O)N2CCCN(C(C)C)CC2)cc1` (centres unmarked) [Example 10, [4-(1-Hydroxy-propyl)-phenyl]-(4-isopropyl-[1,4]diazepan-1-yl)-methanone], the Ki was determined as 509 nM.
The compound `CC(C)N1CCCN(C(=O)c2ccc(C(O)c3ccccc3)cc2)CC1` (centres unmarked) [Example 11, [4-(Hydroxy-phenyl-methyl)-phenyl]-(4-isopropyl-[1,4]diazepan-1-yl)-methanone] yielded an inhibition constant (Ki) of 78 nM. This Ki is about 6.5-fold lower than that of the compound before.
Compound `CCC(O)c1ccc(C(=O)N2CCCN(C3CC3)CC2)cc1` (centres unmarked) [Example 31, (4-Cyclopropyl-[1,4]diazepan-1-yl)-[4-(1-hydroxy-propyl)-phenyl]-methanone] came in with a Ki of 205 nM.
`O=C(c1ccc(C2CCCCC2)cc1)N1CCN(C2CCC2)CC1` [Example 36, (4-Cyclobutyl-piperazin-1-yl)-(4-cyclohexyl-phenyl)-methanone] registered a Ki of 79 nM. Against the preceding compound, the Ki is about 2.6-fold lower.

A further experiment has as its target T1, human H3 receptor. The experiment can be described thus: Cyclic AMP accumulation, SK-N-MC subline with reporter construct and human H3 receptor. The class given is cell-based. The conditions noted are these: cAMP accumulation, SK-N-MC reporter cells expressing human H3; average of results; read-out: Human pA2 (converted). An excerpt:
(§2) Sublines of SK-N-MC cells were created that expressed a reporter construct and either the human or rat H3 receptor. The pA2 values were obtained as described by Barbier et al. (2004). Data for compounds tested in these assays are presented in Table 3, as an average of the results obtained (NT=not tested).
On the technique in general: cAMP levels reflect the balance of adenylyl cyclase and phosphodiesterase activity.
Consider `CCC(O)c1ccc(C(=O)N2CCCN(C3CCC3)CC2)cc1` (centres unmarked) [Example 19, (4-Cyclobutyl-[1,4]diazepan-1-yl)-[4-(1-hydroxy-propyl)-phenyl]-methanone], for which the Kb is 0.182 nM.

Another experiment addresses T2, rat H3 receptor. The experiment can be described thus: Cyclic AMP accumulation, SK-N-MC subline with reporter construct and rat H3 receptor. The class given is cell-based. The conditions noted are these: cAMP accumulation, SK-N-MC reporter cells expressing rat H3; average of results; read-out: Rat pA2 (converted).
Description: as §2
Take `CC(C)N1CCN(C(=O)c2ccc(CO)cc2)CC1` [Example 6, (4-Hydroxymethyl-phenyl)-(4-isopropyl-piperazin-1-yl)-methanone]: the Kb is 295 nM.
In the case of `CCC(O)c1ccc(C(=O)N2CCCN(C3CCC3)CC2)cc1` (centres unmarked) [Example 19, (4-Cyclobutyl-[1,4]diazepan-1-yl)-[4-(1-hydroxy-propyl)-phenyl]-methanone], the Kb was 3.31 nM.
